# Measured values as given in patent US9341616B2, “Sweet taste receptor chimeric proteins and use thereof” (AJINOMOTO CO., INC., priority 2014, dated 2016).
# Where two headings read alike, the source gives them in different places. Residues, ends and D or L forms follow the SMILES beside them.
# Columns and labels:
# hT1R2/T1R3mosaicB = hT1R2/T1R3mosaicB (UniProt Q8TE23+Q925D8, A558R/A588V/A645S/A698V/A702T/A793V/A807V/A88D/C582S/C678S/E725V/F541I/F612A/F622V/F695L/F71L/G86K/H728R/I152V/I617V/I706V/I740A/I803L/K555R/K565R/K818R/K827G/L151M/L560F/L684P/L68N/L72W/L735F/L823M/L825Q/M644L/M744T/M74L/N547G/N675D/P545F/P561R/P564S/P67S/Q123R/Q550E/Q611L/Q757R/Q795R/Q831P/R632Q/S112P/S124D/S576L/S595F/S610P/S635P/S637R/S679G/S717H/T109A/T542A/T663I/T694M/T813A/V120A/V573A/V584A/V718M/V723A/V729T/V738A/V805L/V812A/V821L/W599R/W676R/W824R/Y680C/Y794L); settings: Table 6; genes hT2/T1R3mB (hT1R2, T1R3mB); HEK293E cells
# Sequence of hT1R2/T1R3mosaicB (Q8TE23 20-839, stated change not applied): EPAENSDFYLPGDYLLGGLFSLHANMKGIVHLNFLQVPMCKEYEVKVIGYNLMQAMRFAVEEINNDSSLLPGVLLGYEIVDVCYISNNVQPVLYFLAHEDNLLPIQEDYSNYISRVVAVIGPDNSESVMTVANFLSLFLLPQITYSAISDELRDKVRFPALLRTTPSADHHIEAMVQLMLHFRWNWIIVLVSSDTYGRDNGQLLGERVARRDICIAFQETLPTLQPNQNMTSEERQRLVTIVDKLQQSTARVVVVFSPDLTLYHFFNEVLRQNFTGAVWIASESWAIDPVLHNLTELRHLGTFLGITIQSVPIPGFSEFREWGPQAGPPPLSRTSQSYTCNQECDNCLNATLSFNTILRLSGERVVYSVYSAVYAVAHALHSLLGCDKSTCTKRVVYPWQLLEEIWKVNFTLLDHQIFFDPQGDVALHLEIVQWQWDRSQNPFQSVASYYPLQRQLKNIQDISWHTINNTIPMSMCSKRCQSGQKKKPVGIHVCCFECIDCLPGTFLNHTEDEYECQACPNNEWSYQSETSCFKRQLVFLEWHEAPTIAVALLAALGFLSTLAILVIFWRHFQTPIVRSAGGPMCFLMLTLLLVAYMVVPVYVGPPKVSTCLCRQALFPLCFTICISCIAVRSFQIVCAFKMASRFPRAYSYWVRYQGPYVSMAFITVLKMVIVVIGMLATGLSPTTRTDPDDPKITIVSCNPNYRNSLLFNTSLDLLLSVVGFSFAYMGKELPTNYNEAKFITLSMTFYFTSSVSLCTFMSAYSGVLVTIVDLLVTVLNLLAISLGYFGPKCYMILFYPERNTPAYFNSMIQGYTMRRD
# Sequence of hT1R2/T1R3mosaicB (Q925D8 with tags, fused parts or gaps with the stated changes limits assumed): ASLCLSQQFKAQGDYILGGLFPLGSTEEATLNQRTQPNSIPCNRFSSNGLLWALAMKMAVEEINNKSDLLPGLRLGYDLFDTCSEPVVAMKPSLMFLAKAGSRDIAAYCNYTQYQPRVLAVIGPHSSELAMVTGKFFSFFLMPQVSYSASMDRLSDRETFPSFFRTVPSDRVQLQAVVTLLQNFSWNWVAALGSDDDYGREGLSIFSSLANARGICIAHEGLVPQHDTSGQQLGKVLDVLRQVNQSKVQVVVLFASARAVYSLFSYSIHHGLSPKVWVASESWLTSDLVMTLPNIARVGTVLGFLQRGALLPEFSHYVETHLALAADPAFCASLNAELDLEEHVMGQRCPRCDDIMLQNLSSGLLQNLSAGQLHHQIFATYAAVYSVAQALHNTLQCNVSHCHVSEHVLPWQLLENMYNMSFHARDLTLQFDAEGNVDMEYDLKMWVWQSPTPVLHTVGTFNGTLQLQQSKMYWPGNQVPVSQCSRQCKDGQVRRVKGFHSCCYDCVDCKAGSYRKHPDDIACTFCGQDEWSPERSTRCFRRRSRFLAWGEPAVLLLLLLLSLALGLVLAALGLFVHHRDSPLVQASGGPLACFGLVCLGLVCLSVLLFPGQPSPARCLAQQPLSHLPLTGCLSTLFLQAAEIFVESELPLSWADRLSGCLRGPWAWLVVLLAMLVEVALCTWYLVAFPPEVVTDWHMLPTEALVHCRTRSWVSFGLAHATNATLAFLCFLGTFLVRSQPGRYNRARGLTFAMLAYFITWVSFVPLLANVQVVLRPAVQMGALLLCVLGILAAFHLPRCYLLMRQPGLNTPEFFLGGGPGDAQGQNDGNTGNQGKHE
# h-mT1R2-481/mT1R3 = h-mT1R2-481/mT1R3 (UniProt Q8TE23+Q925D8, A537S/A564V/A568V/A570T/A649T/A658V/A782V/E530V/E534N/E542M/E548N/F525Y/F665L/G696N/G701T/H484Y/H528R/I481V/I486P/I490V/I510L/I518V/I595M/I643V/I645L/I692L/I695G/K504M/K626T/K714N/L521P/L571I/L578I/L610P/L631F/L636F/L639V/L688V/L702I/L734M/L800F/M492I/M616G/M682V/M690V/M748V/N540G/N541S/N721H/P638T/P824S/Q536L/Q546K/Q555R/Q676H/R498S/R667S/S501P/S547N/S550A/S628F/S663R/S670G/S681F/S703N/S727G/S784D/S804G/T529S/T549I/T609V/T629S/T642S/T705I/T706G/T716I/V508I/V512P/V557A/V585L/V613L/V617M/V673M/V687A/V691A/V694A/V718L/V741L/V774I/V791M/Y533F/Y615F/Y671F/Y769S/Y783H); settings: genes h-mT481/mT3 (h-mT1R2-481, mT1R3), HEK293E cells
# Sequence of h-mT1R2-481/mT1R3 (Q8TE23 with tags, fused parts or gaps with the stated changes limits assumed): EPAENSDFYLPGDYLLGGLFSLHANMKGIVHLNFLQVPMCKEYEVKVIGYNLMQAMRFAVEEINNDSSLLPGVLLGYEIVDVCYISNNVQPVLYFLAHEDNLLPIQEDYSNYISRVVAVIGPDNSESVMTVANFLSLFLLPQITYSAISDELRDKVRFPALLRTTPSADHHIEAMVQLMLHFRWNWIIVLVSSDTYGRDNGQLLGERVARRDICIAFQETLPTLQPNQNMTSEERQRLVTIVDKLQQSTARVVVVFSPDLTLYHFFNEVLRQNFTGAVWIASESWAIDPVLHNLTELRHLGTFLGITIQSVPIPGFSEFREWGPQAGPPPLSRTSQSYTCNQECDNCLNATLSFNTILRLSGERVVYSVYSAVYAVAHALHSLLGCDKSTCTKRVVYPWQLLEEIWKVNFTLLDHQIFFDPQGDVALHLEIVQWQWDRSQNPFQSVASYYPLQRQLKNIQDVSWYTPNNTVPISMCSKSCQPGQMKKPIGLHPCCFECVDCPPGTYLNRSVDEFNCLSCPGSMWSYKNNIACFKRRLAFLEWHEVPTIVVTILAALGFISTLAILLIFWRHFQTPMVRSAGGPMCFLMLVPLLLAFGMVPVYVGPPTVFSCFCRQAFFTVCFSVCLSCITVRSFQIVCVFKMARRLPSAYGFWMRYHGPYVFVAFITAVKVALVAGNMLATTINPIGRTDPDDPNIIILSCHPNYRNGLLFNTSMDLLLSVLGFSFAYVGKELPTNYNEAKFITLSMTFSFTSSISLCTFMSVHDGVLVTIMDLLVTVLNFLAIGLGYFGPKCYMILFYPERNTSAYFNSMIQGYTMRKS
# Sequence of h-mT1R2-481/mT1R3 (Q925D8 21-858, stated change not applied): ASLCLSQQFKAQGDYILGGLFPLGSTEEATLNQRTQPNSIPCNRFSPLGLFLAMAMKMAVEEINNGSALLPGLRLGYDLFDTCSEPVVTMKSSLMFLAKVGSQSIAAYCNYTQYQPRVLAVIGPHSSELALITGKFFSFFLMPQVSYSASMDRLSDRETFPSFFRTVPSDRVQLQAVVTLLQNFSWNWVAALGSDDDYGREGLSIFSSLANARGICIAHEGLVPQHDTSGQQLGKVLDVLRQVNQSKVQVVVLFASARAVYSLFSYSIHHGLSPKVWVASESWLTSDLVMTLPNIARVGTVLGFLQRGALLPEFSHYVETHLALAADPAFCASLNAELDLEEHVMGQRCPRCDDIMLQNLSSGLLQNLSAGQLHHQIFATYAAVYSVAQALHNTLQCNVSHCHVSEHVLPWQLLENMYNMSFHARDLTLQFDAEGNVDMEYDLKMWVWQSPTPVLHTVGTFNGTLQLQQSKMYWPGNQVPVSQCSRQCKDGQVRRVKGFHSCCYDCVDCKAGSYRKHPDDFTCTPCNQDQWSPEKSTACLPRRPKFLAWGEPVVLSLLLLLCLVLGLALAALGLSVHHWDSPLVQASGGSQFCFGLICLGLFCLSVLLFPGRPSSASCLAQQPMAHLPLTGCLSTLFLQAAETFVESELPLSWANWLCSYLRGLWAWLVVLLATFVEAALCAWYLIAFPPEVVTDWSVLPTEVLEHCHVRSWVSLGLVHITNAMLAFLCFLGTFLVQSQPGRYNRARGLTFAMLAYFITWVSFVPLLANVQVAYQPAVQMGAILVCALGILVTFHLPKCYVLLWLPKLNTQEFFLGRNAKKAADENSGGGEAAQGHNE
Compound,S/N (hT1R2/T1R3mosaicB),S/N (h-mT1R2-481/mT1R3; Table 3),S/N (h-mT1R2-481/mT1R3; Table 4)
"OC[C@H]1O[C@H](O[C@]2(CCl)O[C@H](CCl)[C@@H](O)[C@@H]2O)[C@H](O)[C@@H](O)[C@H]1Cl [Sucralose, sucralose]",4.1,5.0,5.7
"C[C@H](NC(=Nc1ccc(C#N)cc1)NCC(=O)O)c1ccccc1 [SC-45647, [3-[(S)-1-phenylethyl]-2-(4-cyanophenyl)guanidino]acetic acid]",7.0,5.1,5.2
"COc1ccc(CCC(=O)c2c(O)cc(O[C@@H]3O[C@H](CO)[C@@H](O)[C@H](O)[C@H]3O[C@@H]3O[C@@H](C)[C@H](O)[C@@H](O)[C@H]3O)cc2O)cc1O [NHDC, neohesperidin dihydrochalcone]",4.8,,
"COC(=O)[C@H](Cc1ccccc1)NC(=O)[C@H](CC(=O)O)NCCCc1ccc(OC)c(O)c1 [Advantame, advantame]",8.5,6.6,7.1
"COC(=O)[C@H](Cc1ccccc1)NC(=O)[C@H](CC(=O)O)NCCC(C)(C)C [Neotame, neotame]",6.0,5.4,5.4
"COC(=O)[C@H](Cc1ccccc1)NC(=O)[C@@H](N)CC(=O)O [Aspartame, aspartame] (HELM PEPTIDE1{D.F.[CO[*:1]]}$$$$V2.0)",5.4,4.3,5.8
"OC[C@H]1O[C@@](CO)(O[C@H]2O[C@H](CO)[C@@H](O)[C@H](O)[C@H]2O)[C@@H](O)[C@@H]1O [Sucrose, sucrose]",4.7,2.8,3.9
"CC1=CC(=O)NS(=O)(=O)O1 [Acesulfame K, acesulfame potassium]",5.5,3.0,3.7
"O=C1NS(=O)(=O)c2ccccc21.[Na] [Saccharin Na, sodium saccharin]",5.4,3.9,4.4
